Laboratory results: patent publication US7371766B2, “Curcumin analogs with anti-tumor and anti-angiogenic properties” (Emory University, priority 1999, dated 2008)

Assays:
[1] = tested on: HCT-116; assay: cells; settings: Homo sapiens, HCT-116, 48 h; for GI50: read-out: Median Growth Inhibitory Concentration (GI50); for CC50: read-out: Median Lethal Concentration (LC50)
[2] = tested on: SF-295; assay: cells; settings: Homo sapiens, SF-295, 48 h; for GI50: read-out: Median Growth Inhibitory Concentration (GI50); for CC50: read-out: Median Lethal Concentration (LC50)
[3] = tested on: MOLT-4; assay: cells; settings: Homo sapiens, MOLT-4, 48 h; for GI50: read-out: Median Growth Inhibitory Concentration (GI50); for CC50: read-out: Median Lethal Concentration (LC50)
[4] = tested on: OVCAR-3; assay: cells; settings: Homo sapiens, OVCAR-3, 48 h; for GI50: read-out: Median Growth Inhibitory Concentration (GI50); for CC50: read-out: Median Lethal Concentration (LC50)
[5] = tested on: SK-MEL-2; assay: cells; settings: Homo sapiens, SK-MEL-2, 48 h; for GI50: read-out: Median Growth Inhibitory Concentration (GI50); for CC50: read-out: Median Lethal Concentration (LC50)
[6] = tested on: HCC-2998; assay: cells; settings: Homo sapiens, HCC 2998, 48 h; for GI50: read-out: Median Growth Inhibitory Concentration (GI50); for CC50: read-out: Median Lethal Concentration (LC50)
[7] = tested on: OVCAR-8; assay: cells; settings: Homo sapiens, OVCAR-8, 48 h; for GI50: read-out: Median Growth Inhibitory Concentration (GI50); for CC50: read-out: Median Lethal Concentration (LC50)
[8] = tested on: SR; assay: cells; settings: Homo sapiens, 48 h; for GI50: read-out: Median Growth Inhibitory Concentration (GI50); for CC50: read-out: Median Lethal Concentration (LC50)
[9] = tested on: NCI-H23; assay: cells; settings: Homo sapiens, NCI-H23, 48 h; for GI50: read-out: Median Growth Inhibitory Concentration (GI50); for CC50: read-out: Median Lethal Concentration (LC50)
[10] = tested on: PC-3; assay: cells; settings: Homo sapiens, PC-3, 48 h; for GI50: read-out: Median Growth Inhibitory Concentration (GI50); for CC50: read-out: Median Lethal Concentration (LC50)
[11] = tested on: Sixty human tumor cell lines; settings: NCI Anti-Tumor Screen, several cell types
[12] = tested on: MDA-N; assay: cells; settings: Homo sapiens, 48 h; for GI50: read-out: Median Growth Inhibitory Concentration (GI50); for CC50: read-out: Median Lethal Concentration (LC50)
[13] = tested on: MDA-MB-435; assay: cells; settings: Homo sapiens, MDA-MB-435, 48 h; for GI50: read-out: Median Growth Inhibitory Concentration (GI50); for CC50: read-out: Median Lethal Concentration (LC50)
[14] = tested on: HT29; assay: cells; settings: Homo sapiens, HT-29, 48 h; for GI50: read-out: Median Growth Inhibitory Concentration (GI50); for CC50: read-out: Median Lethal Concentration (LC50)
[15] = tested on: OVCAR-5; assay: cells; settings: Homo sapiens, OVCAR-5, 48 h; for GI50: read-out: Median Growth Inhibitory Concentration (GI50); for CC50: read-out: Median Lethal Concentration (LC50)
[16] = tested on: HCT-15; assay: cells; settings: Homo sapiens, HCT-15, 48 h; for GI50: read-out: Median Growth Inhibitory Concentration (GI50); for CC50: read-out: Median Lethal Concentration (LC50)
[17] = tested on: TK-10; assay: cells; settings: Homo sapiens, TK-10, 48 h; for GI50: read-out: Median Growth Inhibitory Concentration (GI50); for CC50: read-out: Median Lethal Concentration (LC50)
[18] = tested on: NCI-H522; assay: cells; settings: Homo sapiens, NCI-H522, 48 h; for GI50: read-out: Median Growth Inhibitory Concentration (GI50); for CC50: read-out: Median Lethal Concentration (LC50)
[19] = tested on: SNB-19; assay: cells; settings: Homo sapiens, SNB-19, 48 h; for GI50: read-out: Median Growth Inhibitory Concentration (GI50); for CC50: read-out: Median Lethal Concentration (LC50)
[20] = tested on: UACC-257; assay: cells; settings: Homo sapiens, UACC-257, 48 h; for GI50: read-out: Median Growth Inhibitory Concentration (GI50); for CC50: read-out: Median Lethal Concentration (LC50)
[21] = tested on: MALME-3M; assay: cells; settings: Homo sapiens, 48 h; for GI50: read-out: Median Growth Inhibitory Concentration (GI50); for CC50: read-out: Median Lethal Concentration (LC50)
[22] = tested on: SK-OV-3; assay: cells; settings: Homo sapiens, SK-OV-3, 48 h; for GI50: read-out: Median Growth Inhibitory Concentration (GI50); for CC50: read-out: Median Lethal Concentration (LC50)
[23] = tested on: CCRF-CEM; assay: cells; settings: Homo sapiens, 48 h; for GI50: read-out: Median Growth Inhibitory Concentration (GI50)
[24] = tested on: SNB-75; assay: cells; settings: Homo sapiens, SNB-75, 48 h; for GI50: read-out: Median Growth Inhibitory Concentration (GI50); for CC50: read-out: Median Lethal Concentration (LC50)
[25] = tested on: DU-145; assay: cells; settings: Homo sapiens, DU-145, 48 h; for GI50: read-out: Median Growth Inhibitory Concentration (GI50); for CC50: read-out: Median Lethal Concentration (LC50)
[26] = tested on: BT-549; assay: cells; settings: Homo sapiens, BT-549, 48 h; for GI50: read-out: Median Growth Inhibitory Concentration (GI50); for CC50: read-out: Median Lethal Concentration (LC50)
[27] = tested on: HOP-62; assay: cells; settings: Homo sapiens, HOP-62, 48 h; for GI50: read-out: Median Growth Inhibitory Concentration (GI50)
[28] = tested on: A549; assay: cells; settings: Homo sapiens, A549, 48 h; for GI50: read-out: Median Growth Inhibitory Concentration (GI50); for CC50: read-out: Median Lethal Concentration (LC50)
[29] = tested on: RPMI-7951 human melanoma; assay: Neutral Red Assay, cell viability, RPMI-7951; settings: Homo sapiens, RPMI-7951, read-out: Cell Viability
[30] = read-out: Median Lethal Concentration (LC50)

`CC(=O)O.O=C1C(=Cc2ccccc2F)CNCC1=Cc1ccccc1F` [EF24, 3,5-Bis-(2-fluorobenzylidene)-piperidin-4-one-acetate] was tested, and the GI50 [1] was 0.2 µM, the CC50 [1] was 1.8 µM and the GI50 [2] was 85 µM. It also gave a CC50 [2] of 20.6 µM, a GI50 [3] of 0.5 µM and a CC50 [3] of 66.2 µM. The GI50 [4] was 1.1 µM, the CC50 [4] was 16.2 µM and the GI50 [5] was 2.6 µM. The CC50 [5] was 19.5 µM, the GI50 [6] was 1.1 µM and the CC50 [6] was 5 µM. It also gave a GI50 [7] of 0.4 µM, a CC50 [7] of 31.3 µM and a GI50 [8] of 0.1 µM. The CC50 [8] was 68.2 µM, the GI50 [9] was 0.9 µM and the CC50 [9] was 5.3 µM. For the same compound, the GI50 [10] was 0.3 µM, the CC50 [10] was 7.2 µM and the “GI50 compared with CISPLATIN, in words” value [11] was “lower GI50 than the chemotherapeutic agent CISPLATIN for several cell types”. The “LC50 compared with CISPLATIN, in words” value [11] was “lower LC50 than the chemotherapeutic agent CISPLATIN for several cell types”, the GI50 [12] was 0.5 µM and the CC50 [12] was 5.6 µM. The GI50 [13] was 0.6 µM, the CC50 [13] was 7.4 µM and the GI50 [14] was 0.3 µM. It also gave a CC50 [14] of 57.3 µM, a GI50 [15] of 1.3 µM and a CC50 [15] of 9.2 µM. The GI50 [16] was 0.2 µM, the CC50 [16] was 13.6 µM and the GI50 [17] was 3.1 µM. The CC50 [17] was 27.8 µM, the GI50 [18] was 0.9 µM and the CC50 [18] was 22.9 µM. It also gave a GI50 [19] of 0.7 µM, a CC50 [19] of 19.3 µM and a GI50 [20] of 1.8 µM. The CC50 [20] was 13.5 µM, the GI50 [21] was 2.3 µM and the CC50 [21] was 25.2 µM. The GI50 [22] was 1.7 µM, the CC50 [22] was 12.8 µM and the GI50 [23] was 0.2 µM. The GI50 [24] was 2 µM, the CC50 [24] was 8.8 µM and the GI50 [25] was 0.7 µM. It also gave a CC50 [25] of 5.4 µM, a GI50 [26] of 0.7 µM and a CC50 [26] of 4.7 µM. The GI50 [27] was 0.7 µM, the GI50 [28] was 1.9 µM and the CC50 [28] was 89.4 µM.

Compound `CC1(/C=C/c2ccccc2O)C=Cc2ccccc2O1` (stereo not shown) [EF7] has a GI50 [1] of 17.6 µM, a CC50 [1] of 57.6 µM and a GI50 [2] of 15.5 µM. It also gave a CC50 [2] of 55.1 µM, a GI50 [3] of 7.7 µM and a CC50 [3] of 64.7 µM. For the same compound, the GI50 [4] was 15.6 µM, the CC50 [4] was 54.5 µM and the GI50 [5] was 16.8 µM. It also gave a CC50 [5] of 57 µM, a GI50 [6] of 18.4 µM and a CC50 [6] of 56.8 µM. For the same compound, the GI50 [7] was 17 µM, the CC50 [7] was 86.4 µM and the GI50 [8] was 15.2 µM. The CC50 [8] was 76.8 µM, the GI50 [9] was 17.6 µM and the CC50 [9] was 62.9 µM. For the same compound, the GI50 [10] was 17.2 µM, the CC50 [10] was 55.6 µM and the GI50 [12] was 16.1 µM. It also gave a CC50 [12] of 56.9 µM, a GI50 [13] of 17.5 µM and a CC50 [13] of 56 µM. For the same compound, the GI50 [14] was 17.8 µM, the CC50 [14] was 60.6 µM and the GI50 [15] was 16.7 µM. It also gave a CC50 [15] of 58.4 µM, a GI50 [16] of 17.2 µM and a CC50 [16] of 68.9 µM. The GI50 [17] was 17.4 µM, the CC50 [17] was 55.9 µM and the GI50 [18] was 16.2 µM. For the same compound, the CC50 [18] was > 100 µM, the GI50 [19] was 17.5 µM and the CC50 [19] was 55.9 µM. The GI50 [20] was 16.9 µM, the CC50 [20] was 55.2 µM and the GI50 [21] was 17.5 µM. For the same compound, the CC50 [21] was 68.8 µM, the viability at 20 µM [29] was 78% and the GI50 [22] was 16.6 µM. For the same compound, the CC50 [22] was 56.2 µM, the GI50 [23] was 12.5 µM and the CC50 [23, 30] was 79.5 µM. It also gave a GI50 [24] of 11.8 µM, a CC50 [24] of 49 µM and a GI50 [25] of 16.4 µM. The CC50 [25] was 54.8 µM, the GI50 [26] was 17.1 µM and the CC50 [26] was 56.8 µM. For the same compound, the GI50 [27] was 16.3 µM, the CC50 [27, 30] was 63.1 µM and the GI50 [28] was 14.9 µM. It also gave a CC50 [28] of 53.3 µM.
